Experimental data taken from US6737438B2, “Substituted 1,2,4-trioxanes useful as antimalarial agents and a process for the preparation thereof” (Council of Scientific and Industrial Research, priority 2002, dated 2004).
Read-outs that look alike come from different tables or passages of the source.

Tested on: multidrug resistant strain of Plasmodium yoelii Nigeriensis
Test: Antimalarial activity against multidrug resistant P. yoelii in swiss mice
Type: in vivo
Conditions: for % Suppression on Day 4 / inhibition in vivo at 96 mg/kg: 4 consecutive days (day 0-3), parasitaemia vs vehicle control; for Cured/treated: observed till day 28; for inhibition in vivo at 96 mg/kg / responders at 96 mg/kg: Plasmodium yoelii; for inhibition in vivo at 96 mg/kg: 96 h, read-out: % Suppression on Day 4; for responders at 96 mg/kg: 672 h, observed till day 28, read-out: Cured/treated (converted)

Compound | % Suppression on Day 4 (i.m., 96 mg/kg) | Cured/treated (i.m., 96 mg/kg) | % Suppression on Day 4 (oral, 96 mg/kg) | Cured/treated (oral, 96 mg/kg) | other results
C(=CC1COC(c2ccccc2)OO1)c1ccc(C2CCCCC2)cc1 (stereo not drawn) [Trioxane 7bc, 6-[(4′-cyclohexylphenyl)vinyl]-3-phenyl-1,2,4-trioxane] | 41.98% | 0/5 | 95.64% | 0/5 | –
CCC1(C)OCC(C=Cc2ccc(-c3ccc(Br)cc3)cc2)OO1 (stereo not drawn) [Trioxane 7fb, 3-Ethyl-3-methly-6-[(4′-bromo-[1,1′-biphenyl]-4-yl)-vinyl]-1,2,4-trioxane] | 51.41% | 0/5 | 100% | 0/5 | –
C=C(c1ccc(-c2ccc(Br)cc2)cc1)C1COC2(OO1)C1CC3CC(C1)CC2C3 (stereo not drawn) [Trioxane 9f] | 92.4% | 2/5 | – | – | % Suppression on Day 4 (oral, 48 mg/kg): 100%; Cured/treated (oral, 48 mg/kg): 5/5
C(=CC1COC2(CCCCC2)OO1)c1ccc(-c2ccccc2)cc1 (stereo not drawn) [Trioxane 7ec, 3-[([1,1′-biphenyl]-4yl)vinyl]-1,2,5-trioxaspiro (5,5) undecane] | – | – | – | – | inhibition in vivo at 96 mg/kg (oral, 96 mg/kg): 100%; responders at 96 mg/kg (oral, 96 mg/kg): 100%; inhibition in vivo at 96 mg/kg (im, i.m., 96 mg/kg): 100%; responders at 96 mg/kg (im, i.m., 96 mg/kg): 0%
C(=CC1COC2(CCCC2)OO1)c1ccc(-c2ccccc2)cc1 (stereo not drawn) [Trioxane 7eb, 8-[([1,1′-biphenyl]-4yl)vinyl]-6,7,10-trioxaspiro (4,5) decane] | – | – | – | – | inhibition in vivo at 96 mg/kg (oral, 96 mg/kg): 100%; responders at 96 mg/kg (oral, 96 mg/kg): 0%; inhibition in vivo at 96 mg/kg (im, i.m., 96 mg/kg): 100%; responders at 96 mg/kg (im, i.m., 96 mg/kg): 100%
C(=CC1COC2(CCCCC2)OO1)c1ccc(C2CCCCC2)cc1 (stereo not drawn) [Trioxane 7bd, 3-[(4′-Cyclohexylphenyl)vinyl]-1,2,5-trioxaspiro(5,5)undecane] | 71.73% | 0/5 | 100% | 5/5 | –
C=C(c1ccc(C2CCCC2)cc1)C1COC2(CC3CCC2C3)OO1 (stereo not drawn) [Trioxane 8a] | 81.23% | 0/5 | 100% | 5/5 | –
C=C(c1ccc(-c2ccc(Br)cc2)cc1)C1COC2(CC3CCC2C3)OO1 (stereo not drawn) [Trioxane 8f] | 100% | 0/5 | 100% | 5/5 | –
Brc1ccc(-c2ccc(C=CC3COC4(CCCC4)OO3)cc2)cc1 (stereo not drawn) [Trioxane 7fe, 8-[(4′-bromo-[1,1′-biphenyl]-4yl)vinyl]-6,7,10-trioxaspiro (4,5) decane] | – | – | – | – | inhibition in vivo at 96 mg/kg (oral, 96 mg/kg): 100%; responders at 96 mg/kg (oral, 96 mg/kg): 60%; inhibition in vivo at 96 mg/kg (im, i.m., 96 mg/kg): 89.4%; responders at 96 mg/kg (im, i.m., 96 mg/kg): 0%
C(=CC1COC2(CCCCC2)OO1)c1ccc(C2CCCC2)cc1 (stereo not drawn) [Trioxane 7ac, 3-[(4′-cyclopentylphenyl)vinyl]-1,2,5-trioxaspiro(5,5)undecane] | 84.94% | 0/5 | 100% | 5/5 | –
C=C(c1ccc(-c2ccccc2)cc1)C1COC2(OO1)C1CC3CC(C1)CC2C3 (stereo not drawn) [Trioxane 9e] | 100% | 0/6 | 100% | 6/6 | –
C=C(c1ccc(-c2ccccc2)cc1)C1COC2(CC3CCC2C3)OO1 (stereo not drawn) [Trioxane 8e] | 100% | 1/4 | 100% | 4/4 | –
8-[(4′-cyclooctylphenyl)vinyl]-6,7,10-trioxaspiro(4,5)undecane [Trioxane 7de] | 57.4% | 0/5 | 100% | 3/5 | –
C=C(c1ccc(C2CCCCC2)cc1)C1COC2(CCC(c3ccccc3)CC2)OO1 (mixture of isomers) [Trioxane 7be] | 91.6% | 0/5 | – | – | % Suppression on Day 4 (oral, 48 mg/kg): 100%; Cured/treated (oral, 48 mg/kg): 5/5
C=C(c1ccc(-c2ccc(Br)cc2)cc1)C1COC2(CCC(C(C)(C)CC)CC2)OO1 (stereo not drawn) [Trioxane 7fd] | – | – | 88.39% | 0/5 | % Suppression on Day 4 (i.m., 48 mg/kg): 51.09%; Cured/treated (i.m., 48 mg/kg): 0/5
C=C(c1ccc(C2CCCCCC2)cc1)C1COC2(CC3CCC2C3)OO1 (stereo not drawn) [Trioxane 8c] | 43.55% | 0/5 | 100% | 3/5 | –
C(=CC1COC2(CCCCCC2)OO1)c1ccc(C2CCCC2)cc1 (stereo not drawn) [Trioxane 7ad] | 48% | 0/5 | 88.68% | 0/5 | –
CCC1(C)OCC(C=Cc2ccc(C3CCCCC3)cc2)OO1 (stereo not drawn) [Trioxane 7bf] | 71.26% | 0/5 | 100% | 0/5 | –
C=C(c1ccc(C2CCCC2)cc1)C1COC2(OO1)C1CC3CC(C1)CC2C3 (stereo not drawn) [Trioxane 9a] | 81.23% | 0/5 | 100% | 5/5 | –
C(=CC1COC2(CCCCCC2)OO1)c1ccc(-c2ccccc2)cc1 (stereo not drawn) [Trioxane 7eh, 3[([1,1′-biphenyl]-4yl)vinyl]-1,2,5-trioxaspiro(5,6)dodecane] | – | – | – | – | inhibition in vivo at 96 mg/kg (oral, 96 mg/kg): 100%; responders at 96 mg/kg (oral, 96 mg/kg): 80%; inhibition in vivo at 96 mg/kg (im, i.m., 96 mg/kg): 92%; responders at 96 mg/kg (im, i.m., 96 mg/kg): 0%
C(=CC1COC2(CCCC2)OO1)c1ccc(C2CCCCC2)cc1 (stereo not drawn) [Trioxane 7bh, 8-[(4′-cyclohexylphenyl)vinyl]-6,7,10-trioxaspiro (4,5) decane] | 100% | 1/4 | 100% | 4/4 | –
C=C(c1ccc(C2CCCCCCC2)cc1)C1COC2(CCC(c3ccccc3)CC2)OO1 (stereo not drawn) [Trioxane 7dd] | 73.81% | 0/5 | 100% | 4/5 | –
C=C(c1ccc(-c2ccc(Cl)cc2)cc1)C1COC2(OO1)C1CC3CC(C1)CC2C3 (stereo not drawn) [Trioxane 9g] | 100% | – | 100% | 3/5 | –
Brc1ccc(-c2ccc(C=CC3COC4(CCCCC4)OO3)cc2)cc1 (stereo not drawn) [Trioxane 7fc, 3-[(4′-bromo-[1,1′-biphenyl]-4-yl)-vinyl]-1,2,5-trioxaspiro (5,5) undecane] | – | – | – | – | inhibition in vivo at 96 mg/kg (oral, 96 mg/kg): 100%; responders at 96 mg/kg (oral, 96 mg/kg): 100%; inhibition in vivo at 96 mg/kg (im, i.m., 96 mg/kg): 46.4%; responders at 96 mg/kg (im, i.m., 96 mg/kg): 20%
C=C(c1ccc(C2CCCC2)cc1)C1COC2(CCC(c3ccccc3)CC2)OO1 (stereo not drawn) [Trioxane 7ab] | 77.56% | 0/5 | 100% | 0/5 | –
C=C(c1ccc(C2CCCCC2)cc1)C1COC2(CC3CCC2C3)OO1 (stereo not drawn) [Trioxane 8b] | 100% | 3/5 | – | – | % Suppression on Day 4 (oral, 48 mg/kg): 100%; Cured/treated (oral, 48 mg/kg): 6/6
C=C(c1ccc(C2CCCCCCC2)cc1)C1COC2(OO1)C1CC3CC(C1)CC2C3 (stereo not drawn) [Trioxane 9d] | 60.12% | 0/5 | 100% | 5/5 | –
C=C(c1ccc(C2CCCCCCC2)cc1)C1COC2(CCC(C(C)(C)CC)CC2)OO1 (stereo not drawn) [Trioxane 7df] | 0% | 0/5 | 100% | 3/5 | –
